The values that follow come from patent publication US10105357B2, “Indication of antibiotic drugs for preparation of cancer inhibition pharmaceutical composition” (LAUNX BIOMEDICAL CO., LTD., priority 2014, dated 2018).

The subject of data set [1] is HI650 (Lung Adenocarcinoma). Kind of data set: Cell viability analysis, lung cancer HI650. It counts as cell-based, human.
The subject of data set [2] is AGS (Gastric Adenocarcinoma). The experiment in a line: Cell viability analysis, gastric cancer AGS. Type of data set: cell-based, human.
Data set [3] has as its system MKN-45 (Gastric Adenocarcinoma). Kind of data set: Cell viability analysis, gastric cancer MKN-45. It counts as cell-based, human.
Data set [4] has as its system HepG2 (Hepatocellular Carcinoma). The experiment in a line: Cell viability analysis, hepatic cancer HepG2. Type of data set: cell-based, human.
The subject of data set [5] is Hep3B (hepatocellular carcinoma). The experiment in a line: Cell viability analysis, hepatic cancer Hep3B. Type of data set: cell-based, human.
For data set [6], the system named is LoVo (Colorectal Adenocarcinoma). The experiment in a line: Cell viability analysis, colon cancer LoVo. It counts as cell-based, human.
For data set [7], the system named is A375 (Amelanotic Melanoma). Kind of data set: Cell viability analysis, skin cancer A375. Type of data set: cell-based, human.
In data set [8] the test system is BCC (basal cell carcinoma). The experiment in a line: Cell viability analysis, skin cancer BCC. Type of data set: cell-based, human.
Data set [9] has as its system HeLa (Cervix Adenocarcinoma). Kind of data set: Cell viability analysis, cervical cancer HeLa. It counts as cell-based, human.
The subject of data set [10] is C-33A (Cervical carcinoma). Kind of data set: Cell viability analysis, cervical cancer C-33A. It counts as cell-based, human.
Data set [11] concerns PC3 (p53−) (Prostate Adenocarcinoma). Kind of data set: Cell viability analysis, prostate cancer PC3. It counts as cell-based, human.
The test system of data set [12] is TSGH-8301 (Urinary Bladder Carcinoma). The experiment in a line: Cell viability analysis, bladder cancer TSGH-8301. It counts as cell-based, human.
In a further data set the test system is T24. The experiment in a line: Cell viability analysis, bladder cancer T24. Type of data set: cell-based, human.
The test system of data set [13] is MCF7 (Mammary Gland, Adenocarcinoma). Kind of data set: Cell viability analysis, breast cancer MCF7. It counts as cell-based, human.
For data set [14], the system named is MDA-MB-231 (Mammary Gland, Adenocarcinoma). Kind of data set: Cell viability analysis, breast cancer MDA-MB-231. Type of data set: cell-based, human.
The next data set relates to BxPC-3. The experiment in a line: Cell viability analysis, pancreatic cancer BxPC-3. It counts as cell-based, human.
The next data set relates to AsPC-1. The experiment in a line: Cell viability analysis, pancreatic cancer AsPC-1. It counts as cell-based, human.
The test system of the next data set is NIH: OVCAR-3. Kind of data set: Cell viability analysis, ovarian cancer NIH: OVCAR-3. Type of data set: cell-based, human.
Another data set has as its system TOV-21G. The experiment in a line: Cell viability analysis, ovarian cancer TOV-21G. It counts as cell-based, human.
The test system of data set [15] is SAS (Tongue squamous cell carcinoma). Kind of data set: Cell viability analysis, tongue cancer SAS. It counts as cell-based, human.
The next data set relates to U-2OS. Kind of data set: Cell viability analysis, osteosarcoma U-2OS. It counts as cell-based, human.
The subject of data set [16] is 786-O (Renal adenocarcinoma). Kind of data set: Cell viability analysis, renal cancer 786-O. It counts as cell-based, human.
The subject of data set [17] is HCT116 (p53+) (Colorectal Carcinoma).
The subject of data set [18] is A549 (Lung Adenocarcinoma). Kind of data set: Cell viability analysis, lung cancer A549. Type of data set: cell-based, human.

Usually viability stands for a read-out of living cells in per cent, often relative to untreated cells. As for `CC[C@H](C)C(=O)O[C@H]1CCC=C2C=C[C@H](C)[C@H](CC[C@@H]3C[C@@H](O)CC(=O)O3)[C@H]21` [Mevastatin], the viability at 10 µM is 69.4% in data set [1] (Homo sapiens, NCI-H1650, 72 h, H1650, repeated experiment, read-out: The results of antibiotic drug inhibiting cancer cell lines (cell viability analysis), H1650); 71.2% in data set [2] (Homo sapiens, 72 h, AGS, repeated experiment, read-out: The results of antibiotic drug inhibiting cancer cell lines (cell viability analysis), AGS); 92.7% in data set [3] (Homo sapiens, MKN-45, 72 h, MKN-45, repeated experiment, read-out: The results of antibiotic drug inhibiting cancer cell lines (cell viability analysis), MKN-45); 98.7% in [4] (Homo sapiens, HepG2, 72 h, HepG2, repeated experiment, read-out: The results of antibiotic drug inhibiting cancer cell lines (cell viability analysis), HepG2); 97.7% in data set [5] (Homo sapiens, 72 h, Hep3B, repeated experiment, read-out: The results of antibiotic drug inhibiting cancer cell lines (cell viability analysis), Hep3B); 90.5% in [6] (Homo sapiens, LoVo, 72 h, read-out: The results of antibiotic drug inhibiting cancer cell lines (cell viability analysis), LoVo, repeated experiment). Also, the viability at 10 µM in [7] (Homo sapiens, A-375, 72 h, A375, repeated experiment, read-out: The results of antibiotic drug inhibiting cancer cell lines (cell viability analysis), A375) is 30.9%; in data set [8] (Homo sapiens, 72 h, BCC, repeated experiment, read-out: The results of antibiotic drug inhibiting cancer cell lines (cell viability analysis), BCC) it was 29.8%; in [9] (Homo sapiens, HeLa, 72 h, HeLa, repeated experiment, read-out: The results of antibiotic drug inhibiting cancer cell lines (cell viability analysis), HeLa), 90.5%; in data set [10] (Homo sapiens, 72 h, C-33A, repeated experiment, read-out: The results of antibiotic drug inhibiting cancer cell lines (cell viability analysis), C-33A), 102%; in data set [11] (Homo sapiens, 72 h, PC-3, repeated experiment, read-out: The results of antibiotic drug inhibiting cancer cell lines (cell viability analysis), PC-3), 65.6%; in data set [12] (Homo sapiens, 72 h, TSGH-8301, repeated experiment, read-out: The results of antibiotic drug inhibiting cancer cell lines (cell viability analysis), TSGH-8301), 94.4%. The viability at 10 µM in the data set with T24 (Homo sapiens, T-24, 72 h, T24, repeated experiment, read-out: The results of antibiotic drug inhibiting cancer cell lines (cell viability analysis), T24) was determined as 67.5%; in data set [13] (Homo sapiens, MCF7, 72 h, MCF-7, repeated experiment, read-out: The results of antibiotic drug inhibiting cancer cell lines (cell viability analysis), MCF-7) it was 77.8%; in data set [14] (Homo sapiens, MDA-MB-231, 72 h, MDA-MB231, repeated experiment, read-out: The results of antibiotic drug inhibiting cancer cell lines (cell viability analysis), MDA-MB231), 56.1%; in the data set with BxPC-3 (Homo sapiens, 72 h, BxPC-3, repeated experiment, read-out: The results of antibiotic drug inhibiting cancer cell lines (cell viability analysis), BxPC-3), 83.6%; in the data set on AsPC-1 (Homo sapiens, ASPC1, 72 h, AsPC-1, repeated experiment, read-out: The results of antibiotic drug inhibiting cancer cell lines (cell viability analysis), AsPC-1), 72.3%; with NIH: OVCAR-3 (Homo sapiens, 72 h, NIH-OVCAR-3, repeated experiment, read-out: The results of antibiotic drug inhibiting cancer cell lines (cell viability analysis), NIH-OVCAR-3), 100%. Further, the viability at 10 µM in the data set on TOV-21G (Homo sapiens, TOV21G, 72 h, TOV-21G, repeated experiment, read-out: The results of antibiotic drug inhibiting cancer cell lines (cell viability analysis), TOV-21G) was 44.7%; in data set [15] (Homo sapiens, 72 h, SAS, repeated experiment, read-out: The results of antibiotic drug inhibiting cancer cell lines (cell viability analysis), SAS) it was 81%; with U-2OS (Homo sapiens, 72 h, U2OS, repeated experiment, read-out: The results of antibiotic drug inhibiting cancer cell lines (cell viability analysis), U2OS) it was 85.3%; in data set [16] (Homo sapiens, 786-0, 72 h, 786-O, repeated experiment, read-out: The results of antibiotic drug inhibiting cancer cell lines (cell viability analysis), 786-O) it was 48%. Moreover, the viability in data set [17] was determined as 73.6%.

Consider `CC(=O)Oc1ccccc1C(=O)Nc1ncc([N+](=O)[O-])s1` [Nitazoxanide (Alinia, Annita)], for which, in [1], the “The results of antibiotic drug inhibiting cancer cell lines (cell viability analysis), H1650” value came out at 85.86. Also, the “The results of antibiotic drug inhibiting cancer cell lines (cell viability analysis), A549” value in data set [18] stood at 95.57. Besides, the “The results of antibiotic drug inhibiting cancer cell lines (cell viability analysis), AGS” value in data set [2] is listed as 99.04. Also, in [3], the “The results of antibiotic drug inhibiting cancer cell lines (cell viability analysis), MKN-45” value was determined as 97.28. Also, the “The results of antibiotic drug inhibiting cancer cell lines (cell viability analysis), HepG2” value in data set [4] is 107.5. In data set [5], the “The results of antibiotic drug inhibiting cancer cell lines (cell viability analysis), Hep3B” value turned out to be 106.8. Moreover, the “The results of antibiotic drug inhibiting cancer cell lines (cell viability analysis), LoVo” value in data set [6] was 94.76. Further, the “The results of antibiotic drug inhibiting cancer cell lines (cell viability analysis), A375” value in data set [7] was 94.2. Further, the “The results of antibiotic drug inhibiting cancer cell lines (cell viability analysis), BCC” value in [8] is recorded as 76. Besides, in data set [9], the “The results of antibiotic drug inhibiting cancer cell lines (cell viability analysis), HeLa” value was determined as 84.93. Moreover, the “The results of antibiotic drug inhibiting cancer cell lines (cell viability analysis), C-33A” value in data set [10] was found to be 103.9. Further, the “The results of antibiotic drug inhibiting cancer cell lines (cell viability analysis), PC-3” value in [11] is 90.27. The “The results of antibiotic drug inhibiting cancer cell lines (cell viability analysis), TSGH-8301” value in data set [12] is given as 87.18. Besides, in the data set with T24, the “The results of antibiotic drug inhibiting cancer cell lines (cell viability analysis), T24” value came out at 76.47. Besides, in [13], the “The results of antibiotic drug inhibiting cancer cell lines (cell viability analysis), MCF-7” value is reported as 79.28. Further, the “The results of antibiotic drug inhibiting cancer cell lines (cell viability analysis), MDA-MB231” value in [14] is recorded as 91.23. Further, the “The results of antibiotic drug inhibiting cancer cell lines (cell viability analysis), BxPC-3” value with BxPC-3 came out at 89.5. In addition, the “The results of antibiotic drug inhibiting cancer cell lines (cell viability analysis), AsPC-1” value in the data set with AsPC-1 amounted to 84.09. For the same molecule, the “The results of antibiotic drug inhibiting cancer cell lines (cell viability analysis), NIH-OVCAR-3” value in the data set on NIH: OVCAR-3 is recorded as 104.5. For the same molecule, the “The results of antibiotic drug inhibiting cancer cell lines (cell viability analysis), TOV-21G” value with TOV-21G was 62.56. Also, the “The results of antibiotic drug inhibiting cancer cell lines (cell viability analysis), SAS” value in data set [15] was 78.89. Further, in the data set with U-2OS, the “The results of antibiotic drug inhibiting cancer cell lines (cell viability analysis), U2OS” value came out at 83.33. Moreover, the “The results of antibiotic drug inhibiting cancer cell lines (cell viability analysis), 786-O” value in data set [16] is reported as 44.2. In addition, the viability in data set [17] came out at 98.4%.
